Experimental data taken from PubChem BioAssay AID330 (DTP/NCI, 2004).
Where “and” joins values, the source holds several entries; their conditions need not be identical. Equal values may be shown once. Inconclusive results and toxic doses are left out. Peptide text beside a SMILES is read from it. * marks the point of attachment. Cbz = O=C(OCc1ccccc1)*

Test system: P388 leukemia ip, CD2F1 mice, survival T/C
Test: NCI In Vivo Anticancer Drug Screen. Data for tumor model P388 Leukemia (intraperitoneal) in CD2F1 (CDF1) mice
Settings: endpoint: median survival time, higher = longer survival
Outline: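 Mice carrying the transplanted tumor received test compound or vehicle. Survival was recorded in each group, and the value is the treated-group measurement divided by that of the vehicle-treated control group.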

[1] = dose: 50.0 mg/kg/injection, schedule: Q01DX005 (ip), vehicle: Klucel (hydroxypropylcellulose) (HPC)
[2] = dose: 100.0 mg/kg/injection, schedule: Q01DX005 (ip), vehicle: Klucel (hydroxypropylcellulose) (HPC)
[3] = dose: 200.0 mg/kg/injection, schedule: Q01DX005 (ip), vehicle: Klucel (hydroxypropylcellulose) (HPC)
[4] = dose: 50.0 mg/kg/injection, schedule: Q01DX005 (ip), vehicle: saline with Tween-80
[5] = dose: 100.0 mg/kg/injection, schedule: Q01DX005 (ip), vehicle: saline with Tween-80
[6] = dose: 60.0 mg/kg/injection, schedule: Q01DX005 (ip), vehicle: saline with Tween-80
[7] = dose: 120.0 mg/kg/injection, schedule: Q01DX005 (ip), vehicle: saline with Tween-80
[8] = dose: 240.0 mg/kg/injection, schedule: Q01DX005 (ip), vehicle: saline with Tween-80

CN(CNC(N)=O)N=O
T/C (dose: 50.0 mg/kg/injection, schedule: Q01DX009 (ip), vehicle: water): 99 % of control | T/C (dose: 100.0 mg/kg/injection, schedule: Q01DX009 (ip), vehicle: water): 108 % of control | T/C (dose: 200.0 mg/kg/injection, schedule: Q01DX009 (ip), vehicle: water): 107 % of control

CCC(C)C(NC(=O)OCc1ccccc1)C(=O)NC(CC(C)C)C(=O)O (stereo not drawn) (Cbz-Ile-Leu-OH; configuration not given here)
T/C [1]: 114 % of control | T/C [2]: 99 % of control | T/C [3]: 99 % of control

CC(=O)[C@H]1CC[C@H]2[C@@H]3C[C@H](F)C4=CC(=O)CC[C@]4(C)[C@H]3C(=O)C[C@]12C
T/C (dose: 100.0 mg/kg/injection, schedule: Q01DX009 (ip), vehicle: saline with Tween-80): 100 % of control | T/C (dose: 200.0 mg/kg/injection, schedule: Q01DX009 (ip), vehicle: saline with Tween-80): 100 % of control | T/C (dose: 400.0 mg/kg/injection, schedule: Q01DX009 (ip), vehicle: saline with Tween-80): 100 % of control

CCCCCCCCCCCC[N+](C)(C)C (tested in a mixture with another compound)
T/C (dose: 6.25 mg/kg/injection, schedule: Q01DX009 (ip), vehicle: Klucel (hydroxypropylcellulose) (HPC)): 113 % of control | T/C (dose: 12.5 mg/kg/injection, schedule: Q01DX009 (ip), vehicle: Klucel (hydroxypropylcellulose) (HPC)): 114 % of control | T/C (dose: 25.0 mg/kg/injection, schedule: Q01DX009 (ip), vehicle: Klucel (hydroxypropylcellulose) (HPC)): 114 % of control

CCCC[As](CCCC)SC1OC(C2COC(C)(C)O2)C2OC(C)(C)OC12 (stereo not drawn)
T/C (dose: 0.78 mg/kg/injection, schedule: Q01DX009 (ip), vehicle: water): 101 % of control | T/C (dose: 1.56 mg/kg/injection, schedule: Q01DX009 (ip), vehicle: water): 117 % of control | T/C (dose: 3.13 mg/kg/injection, schedule: Q01DX009 (ip), vehicle: distilled water + Tween-80): 122 % of control | T/C (dose: 3.13 mg/kg/injection, schedule: Q01DX009 (ip), vehicle: water): 101 % of control | T/C (dose: 6.25 mg/kg/injection, schedule: Q01DX009 (ip), vehicle: distilled water + Tween-80): 96 % of control | T/C (dose: 6.25 mg/kg/injection, schedule: Q01DX009 (ip), vehicle: water): 111 % of control | T/C (dose: 12.5 mg/kg/injection, schedule: Q01DX009 (ip), vehicle: distilled water + Tween-80): 123 % of control | T/C (dose: 25.0 mg/kg/injection, schedule: Q01DX009 (ip), vehicle: distilled water + Tween-80): 88 % of control

CC(C)(C)SSCCN
T/C [4]: 103 % of control | T/C [5]: 109 % of control

O=CC(=C\c1cccs1)/C(C=O)=C\c1cccs1
T/C (dose: 12.5 mg/kg/injection, schedule: Q01DX005 (ip), vehicle: saline with Tween-80): 107 % of control | T/C (dose: 25.0 mg/kg/injection, schedule: Q01DX005 (ip), vehicle: saline with Tween-80): 108 % of control | T/C [4]: 108 % of control and 114 % of control | T/C [5]: 109 % of control

CCOC(=O)C(Cc1c[nH]c2ccccc12)NC(=O)C(Cc1ccccc1)NC(=O)C(Cc1cnc[nH]1)NC(=O)OCc1ccccc1 (stereo not drawn) (Cbz-His-Phe-Trp-OEt; configuration not given here)
T/C [1]: 93 % of control | T/C [2]: 93 % of control | T/C [3]: 89 % of control

N=C(N)n1ncc2c1CCCC2=O
T/C [6]: 100 % of control | T/C [7]: 105 % of control | T/C [8]: 96 % of control

Nc1nnc2nc(C(C(=O)c3ccc(Cl)cc3Cl)c3nc4nnc(N)n4[nH]c3=O)c(=O)[nH]n12
T/C [4]: 92 % of control | T/C [5]: 100 % of control | T/C (dose: 200.0 mg/kg/injection, schedule: Q01DX005 (ip), vehicle: saline with Tween-80): 100 % of control

CCCCCCCCCc1ccc(OC(C)OCCOCCOCC)cc1 (stereo not drawn)
T/C [6]: 98 % of control | T/C [7]: 98 % of control | T/C [8]: 98 % of control

COc1cccc2c1C(=O)c1c(O)c3c(c(O)c1C2=O)C[C@@](O)(C(C)O)C[C@@H]3OC1CC(N)C(O)C(C)O1 (stereo partly drawn)
T/C (dose: 1.08 mg/kg/injection, schedule: Q01DX009 (ip), vehicle: saline): 168 % of control | T/C (dose: 1.8 mg/kg/injection, schedule: Q01DX009 (ip), vehicle: saline): 163 % of control and 172 % of control | T/C (dose: 3.0 mg/kg/injection, schedule: Q01DX009 (ip), vehicle: saline): 159 % of control and 173 % of control | T/C (dose: 3.0 mg/kg/injection, schedule: Q04DX003 (ip), vehicle: saline): 150 % of control | T/C (dose: 5.0 mg/kg/injection, schedule: Q01DX009 (ip), vehicle: saline): 173 % of control and 195 % of control | T/C (dose: 5.0 mg/kg/injection, schedule: Q04DX003 (ip), vehicle: saline): 154 % of control | T/C (dose: 8.0 mg/kg/injection, schedule: Q01DX001 (ip), vehicle: saline): 154 % of control | T/C (dose: 8.0 mg/kg/injection, schedule: Q01DX009 (ip), vehicle: saline): 150 % of control | T/C (dose: 8.0 mg/kg/injection, schedule: Q04DX003 (ip), vehicle: saline): 163 % of control | T/C (dose: 13.3 mg/kg/injection, schedule: Q01DX009 (ip), vehicle: saline): 90 % of control | T/C (dose: 13.3 mg/kg/injection, schedule: Q04DX003 (ip), vehicle: saline): 172 % of control | T/C (dose: 22.2 mg/kg/injection, schedule: Q01DX001 (ip), vehicle: saline): 181 % of control | T/C (dose: 37.0 mg/kg/injection, schedule: Q01DX001 (ip), vehicle: saline): 163 % of control | T/C (dose: 37.0 mg/kg/injection, schedule: Q04DX003 (ip), vehicle: saline): 100 % of control | T/C (dose: 61.7 mg/kg/injection, schedule: Q01DX001 (ip), vehicle: saline): 90 % of control
